Test results: patent US12428406B2 (PMV Pharmaceuticals, Inc., priority 2019, dated 2025)

The molecules below were run against T1, p53 Y220C (Homo sapiens, UniProt P04637, Y220C) (assay: In vitro DNA binding activity assay (HTRF / TR-FRET): stabilization of p53 Y220C and increase of its DNA binding activity). Conditions: recombinant His-tagged p53 Y220C DNA binding domain (aa 94-312), biotin-labeled consensus DNA, incubated at 27° C. or 29° C. for 60 min.
T1 construct: The recombinant protein was a truncation mutant containing only amino acids 94-312 of p53; made in house; host or cells: E. coli
Type: biochemical
Procedure, shortened: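 Homogeneous time-resolved fluorescence with E. coli-derived p53 Y220C and biotinylated consensus DNA. Room-temperature incubations of 15 and 20 min precede reading. SC150 denotes the compound concentration required for 50% increased DNA binding.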

T1 sequence (P04637 94-312, change not shown): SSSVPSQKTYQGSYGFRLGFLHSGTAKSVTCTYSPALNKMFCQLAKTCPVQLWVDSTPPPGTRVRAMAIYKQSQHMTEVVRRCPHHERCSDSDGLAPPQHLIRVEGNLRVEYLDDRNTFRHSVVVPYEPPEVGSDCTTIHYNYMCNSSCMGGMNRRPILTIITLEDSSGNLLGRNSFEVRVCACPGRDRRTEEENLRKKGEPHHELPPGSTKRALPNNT

SC150 (concentration of the compound required to increase the DNA binding activity by 50%), + (+ = 0 μM ≤ SC150 < 0.05 μM):
COc1cc(S(C)(=O)=O)ccc1NCC#Cc1cc2c(NC3CCN(C[C@@H](O)CO)CC3)cccc2n1CC(F)(F)F [Compound 557A, (2R)-3-{4-[(2-{3-[(4-methanesulfonyl-2-methoxyphenyl)amino]prop-1-yn-1-yl}-1-(2,2,2-trifluoroethyl)-1H-indol-4-yl)amino]piperidin-1-yl}propane-1,2-diol]
COc1cc(S(C)(=O)=O)ccc1NCC#Cc1cc2c(NC3CCN(C[C@H](O)CO)CC3)cccc2n1CC(F)(F)F [Compound 558A, (2S)-3-{4-[(2-{3-[(4-methanesulfonyl-2-methoxyphenyl)amino]prop-1-yn-1-yl}-1-(2,2,2-trifluoroethyl)-1H-indol-4-yl)amino]piperidin-1-yl}propane-1,2-diol]
COc1cc(S(=O)(=O)N2CCN(C)CC2)ccc1NCC#Cc1cc2c(NC3CCN(CC(O)CO)CC3)cccc2n1CC(F)(F)F (stereo not shown) [Compound 559A, 3-[4-({2-[3-({2-methoxy-4-[(4-methylpiperazin-1-yl)sulfonyl]phenyl}amino)prop-1-yn-1-yl]-1-(2,2,2-trifluoroethyl)-1H-indol-4-yl}amino)piperidin-1-yl]propane-1,2-diol]
COc1cc(S(N)(=O)=O)ccc1NCC#Cc1cc2c(NC3CCN(C[C@@H]4COC(=O)O4)CC3)cccc2n1CC(F)(F)F [Compound 562A, 3-methoxy-4-[(3-{4-[(1-{[(4R)-2-oxo-1,3-dioxolan-4-yl]methyl}piperidin-4-yl)amino]-1-(2,2,2-trifluoroethyl)-1H-indol-2-yl}prop-2-yn-1-yl)amino]benzene-1-sulfonamide]
COc1cc(S(C)(=O)=O)ccc1NCC#Cc1cc2c(NC3CCN(C[C@@H]4COC(=O)O4)CC3)cccc2n1CC(F)(F)F [Compound 563A, (4R)-4-({4-[(2-{3-[(4-methanesulfonyl-2-methoxyphenyl)amino]prop-1-yn-1-yl}-1-(2,2,2-trifluoroethyl)-1H-indol-4-yl)amino]piperidin-1-yl}methyl)-1,3-dioxolan-2-one]
COc1cc(S(=O)(=O)N(C)C)ccc1NCC#Cc1cc2c(NC3CCN(CC(O)CO)CC3)cccc2n1CC(F)(F)F (stereo not shown) [Compound 564A, 4-{[3-(4-{[1-(2,3-dihydroxypropyl)piperidin-4-yl]amino}-1-(2,2,2-trifluoroethyl)-1H-indol-2-yl)prop-2-yn-1-yl]amino}-3-methoxy-N,N-dimethylbenzene-1-sulfonamide]
COc1cc(S(C)(=O)=O)ccc1NCC#Cc1cc2c(NC3CCN(CCOC(C)=O)CC3)cccc2n1CC(F)(F)F [Compound 565A, 2-{4-[(2-{3-[(4-methanesulfonyl-2-methoxyphenyl)amino]prop-1-yn-1-yl}-1-(2,2,2-trifluoroethyl)-1H-indol-4-yl)amino]piperidin-1-yl}EtOAc]
COc1cc(S(C)(=O)=O)ccc1NCC#Cc1cc2c(NC3CCN(C[C@@H]4COC(C)(C)O4)CC3)cccc2n1CC(F)(F)F [Compound 566A, N-(1-{[(4R)-2,2-dimethyl-1,3-dioxolan-4-yl]methyl}piperidin-4-yl)-2-{3-[(4-methanesulfonyl-2-methoxyphenyl)amino]prop-1-yn-1-yl}-1-(2,2,2-trifluoroethyl)-1H-indol-4-amine]
COc1cc(S(C)(=O)=O)ccc1NCC#Cc1cc2c(NC3CCN(CC(C)OC(C)=O)CC3)cccc2n1CC(F)(F)F (stereo not shown) [Compound 567A, 1-{4-[(2-{3-[(4-methanesulfonyl-2-methoxyphenyl)amino]prop-1-yn-1-yl}-1-(2,2,2-trifluoroethyl)-1H-indol-4-yl)amino]piperidin-1-yl}propan-2-yl acetate]
COc1cc(S(N)(=O)=O)ccc1NCC#Cc1cc2c(NC3CCN(C[C@@H]4COC(C)(C)O4)CC3)cccc2n1CC(F)(F)F [Compound 568A, 4-[(3-{4-[(1-{[(4R)-2,2-dimethyl-1,3-dioxolan-4-yl]methyl}piperidin-4-yl)amino]-1-(2,2,2-trifluoroethyl)-1H-indol-2-yl}prop-2-yn-1-yl)amino]-3-methoxybenzene-1-sulfonamide]
COCC(O)CN1CCC(Nc2cccc3c2cc(C#CCNc2ccc(S(C)(=O)=O)cc2OC)n3CC(F)(F)F)CC1 (stereo not shown) [Compound 569A, 1-{4-[(2-{3-[(4-methanesulfonyl-2-methoxyphenyl)amino]prop-1-yn-1-yl}-1-(2,2,2-trifluoroethyl)-1H-indol-4-yl)amino]piperidin-1-yl}-3-methoxypropan-2-ol]
COCCN(C)S(=O)(=O)c1ccc(NCC#Cc2cc3c(NC4CCN(CC(O)CO)CC4)cccc3n2CC(F)(F)F)c(OC)c1 (stereo not shown) [Compound 572A, 4-{[3-(4-{[1-(2,3-dihydroxypropyl)piperidin-4-yl]amino}-1-(2,2,2-trifluoroethyl)-1H-indol-2-yl)prop-2-yn-1-yl]amino}-3-methoxy-N-(2-methoxyethyl)-N-methylbenzene-1-sulfonamide]
COCC(O)CN1CCC(Nc2cccc3c2cc(C#CCNc2ccc(S(N)(=O)=O)cc2OC)n3CC(F)(F)F)CC1 (stereo not shown) [Compound 574A, 4-{[3-(4-{[1-(2-hydroxy-3-methoxypropyl)piperidin-4-yl]amino}-1-(2,2,2-trifluoroethyl)-1H-indol-2-yl)prop-2-yn-1-yl]amino}-3-methoxybenzene-1-sulfonamide]
COCC(=O)N1CCC(Nc2cccc3c2cc(C#CCNc2ccc(S(N)(=O)=O)cc2OC)n3CC(F)(F)F)CC1 [Compound 575A]
COc1cc(S(=O)(=O)N2CCN(C(C)=O)CC2)ccc1NCC#Cc1cc2c(NC3CCN(CC(O)CO)CC3)cccc2n1CC(F)(F)F (stereo not shown) [Compound 577A, 1-[4-(4-{[3-(4-{[1-(2,3-dihydroxypropyl)piperidin-4-yl]amino}-1-(2,2,2-trifluoroethyl)-1H-indol-2-yl)prop-2-yn-1-yl]amino}-3-methoxybenzenesulfonyl)piperazin-1-yl]ethan-1-one]
COc1cc(S(C)(=O)=O)ccc1NCC#Cc1cc2c(NC3CCN(C[C@H]4COC(=O)O4)CC3)cccc2n1CC(F)(F)F [Compound 578A, (4S)-4-({4-[(2-{3-[(4-methanesulfonyl-2-methoxyphenyl)amino]prop-1-yn-1-yl}-1-(2,2,2-trifluoroethyl)-1H-indol-4-yl)amino]pipendin-1-yl}methyl)-1,3-dioxolan-2-one]
COCC(CN1CCC(Nc2cccc3c2cc(C#CCNc2ccc(S(C)(=O)=O)cc2OC)n3CC(F)(F)F)CC1)OC (stereo not shown) [Compound 580A, N-[1-(2,3-dimethoxypropyl)piperidin-4-yl]-2-{3-[(4-methanesulfonyl-2-methoxyphenyl)amino]prop-1-yn-1-yl}-1-(2,2,2-trifluoroethyl)-1H-indol-4-amine]
COCC(CN1CCC(Nc2cccc3c2cc(C#CCNc2ccc(S(N)(=O)=O)cc2OC)n3CC(F)(F)F)CC1)OC (stereo not shown) [Compound 581A, 4-{[3-(4-{[1-(2,3-dimethoxypropyl)piperidin-4-yl]amino}-1-(2,2,2-trifluoroethyl)-1H-indol-2-yl)prop-2-yn-1-yl]amino}-3-methoxybenzene-1-sulfonamide]
COc1cc(S(=O)(=O)N2CCOCC2)ccc1NCC#Cc1cc2c(NC3CCN(CC(O)CO)CC3)cccc2n1CC(F)(F)F (stereo not shown) [Compound 582A, 3-(4-{[2-(3-{[2-methoxy-4-(morpholine-4-sulfonyl)phenyl]amino}prop-1-yn-1-yl)-1-(2,2,2-trifluoroethyl)-1H-indol-4-yl]amino}piperidin-1-yl)propane-1,2-diol]
COc1cc(C(N)=O)ccc1NCC#Cc1cc2c(NC3CCN(C[C@@H](O)CO)CC3)cccc2n1CC(F)(F)F [Compound 583A]
COc1cc(S(C)(=O)=O)ccc1NCC#Cc1cc2c(NC3CCN(CCOC(=O)C(C)C)CC3)cccc2n1CC(F)(F)F [Compound 584A, 2-{4-[(2-{3-[(4-methanesulfonyl-2-methoxyphenyl)amino]prop-1-yn-1-yl}-1-(2,2,2-trifluoroethyl)-1H-indol-4-yl)amino]piperidin-1-yl} ethyl 2-methylpropanoate]
CCC(=O)OCCN1CCC(Nc2cccc3c2cc(C#CCNc2ccc(S(C)(=O)=O)cc2OC)n3CC(F)(F)F)CC1 [Compound 585A, 2-{4-[(2-{3-[(4-methanesulfonyl-2-methoxyphenyl)amino]prop-1-yn-1-yl}-1-(2,2,2-trifluoroethyl)-1H-indol-4-yl)amino]piperidin-1-yl}ethyl propanoate]
